Test results taken from patent US9828375B2, “4-position substituted pyrazolopyrimidine derivative, and use thereof in drug preparation” (Guangxi Wuzhou Pharmaceuticals (Group) Co., Ltd., priority 2012, dated 2017).
Like-named read-outs stand apart in the source and are kept apart here.

Assays:
[1] = molecular target: VEGFR2 (Homo sapiens, UniProt P35968); experiment: Kinase inhibition activity test, isotope labeling (γ-33P-ATP): VEGFR2; format: biochemical; conditions: for Activity inhibition rate VEGFR2 (h) / inhibition at 10 µM: test compound at a concentration of 10 μM; for IC50: ATP 90 μM, read-out: VEGFR2 IC50 value (inhibitory activity value); for inhibition at 10 µM: read-out: Activity inhibition rate VEGFR2 (h)
VEGFR2, sequence (P35968 20-1356): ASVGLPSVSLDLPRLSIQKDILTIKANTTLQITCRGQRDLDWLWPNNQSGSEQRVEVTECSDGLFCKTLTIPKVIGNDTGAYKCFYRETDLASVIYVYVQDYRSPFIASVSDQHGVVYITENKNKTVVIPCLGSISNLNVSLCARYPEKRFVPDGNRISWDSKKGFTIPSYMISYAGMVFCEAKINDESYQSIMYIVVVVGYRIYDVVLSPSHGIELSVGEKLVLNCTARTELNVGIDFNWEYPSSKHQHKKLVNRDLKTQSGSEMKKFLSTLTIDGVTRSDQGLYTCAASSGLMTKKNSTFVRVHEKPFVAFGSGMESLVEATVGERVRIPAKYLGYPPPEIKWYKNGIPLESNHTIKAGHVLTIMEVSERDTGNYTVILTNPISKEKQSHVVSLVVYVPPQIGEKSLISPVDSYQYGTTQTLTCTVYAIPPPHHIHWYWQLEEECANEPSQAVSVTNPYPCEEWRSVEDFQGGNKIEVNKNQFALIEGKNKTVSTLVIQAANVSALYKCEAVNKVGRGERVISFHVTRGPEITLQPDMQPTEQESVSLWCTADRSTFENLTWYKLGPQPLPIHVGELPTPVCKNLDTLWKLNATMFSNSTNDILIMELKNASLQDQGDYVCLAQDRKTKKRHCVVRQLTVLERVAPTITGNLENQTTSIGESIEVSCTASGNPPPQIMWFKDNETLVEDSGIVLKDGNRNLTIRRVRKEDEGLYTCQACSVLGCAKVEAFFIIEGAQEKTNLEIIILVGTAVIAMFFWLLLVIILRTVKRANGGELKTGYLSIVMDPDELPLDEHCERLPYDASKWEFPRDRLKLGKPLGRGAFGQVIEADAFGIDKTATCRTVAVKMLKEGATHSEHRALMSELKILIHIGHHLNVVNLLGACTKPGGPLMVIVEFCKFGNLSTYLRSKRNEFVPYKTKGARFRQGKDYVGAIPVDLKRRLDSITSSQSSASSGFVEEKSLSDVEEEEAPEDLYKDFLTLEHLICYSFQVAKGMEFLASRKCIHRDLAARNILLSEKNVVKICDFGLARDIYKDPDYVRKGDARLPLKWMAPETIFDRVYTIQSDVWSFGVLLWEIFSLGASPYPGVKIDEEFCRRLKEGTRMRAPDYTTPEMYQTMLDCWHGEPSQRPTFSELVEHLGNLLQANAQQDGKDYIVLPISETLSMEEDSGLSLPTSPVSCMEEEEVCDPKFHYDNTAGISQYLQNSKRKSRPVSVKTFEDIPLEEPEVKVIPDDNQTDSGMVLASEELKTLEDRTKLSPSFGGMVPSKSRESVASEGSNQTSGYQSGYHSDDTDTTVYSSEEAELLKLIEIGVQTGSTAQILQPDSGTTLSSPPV
Method: (§1) The purpose of this experiment was to test the inhibitory activity of the compound of the invention for in vitro kinase with the isotope labeling method (the γ phosphate group on ATP was labeled). In this experiment, the in vitro activity inhibition of such kinases as FLT3, VEGFR2, FLT1, FLT4, RET, c-RAF, B-RAF, c-KIT, PDGFα, PDGFβ, FGFR2, FGFR1, EphA2, EphB2, SRC, ABL, ALK and Met was tested respectively. Staurosporine was reference molecule (or referred to as positive control). The kinase inhibition activity of the test compound was expressed by half-inhibitory concentration (IC50) or the kinase activity inhibition rate of the test compound at a concentration of 10 μM. The IC50 value could be obtained by calculating the kinase activity inhibition rate of the test compound at different concentrations.
(§2) 20 mM 3-(N-morpholinyl)propanesulfonic acid (MOPS); 1 mM ethylenediaminetetraacetic acid (EDTA), 0.01% Brij 35 (Brij-35), 5% glycerol, 0.1% mercaptoethanol, 1 mg/mL bovine serum albumin (BSA), 10 mM manganous dichloride solution (MnCl2), 0.1 mg/mL glutamic acid/tyrosine (4:1) polypeptide (poly(Glu, Tyr)4:1), 50 μM EAIYAAPFAKKK (substrate of FLT3), 0.33 mg/mL myelin basic protein (substrate of VEGFR2), 250 μM KKKSPGEYVNIEFG (substrate of FLT1(h)), 500 μM GGEEEEYFELVKKKK (substrate of FLT4(h)), 250 μM KKKSPGEYVNIEFG (substrate of RET), 0.66 mg/mL myelin basic protein (substrate of C-RAF), 250 μM GGMEDIYFEFMGGKKK (substrate of c-Kit), 250 μM GGMEDIYFEFMGGKKK (substrate of PDGFα), 250 μM KKKSPGEYVNIEFG (substrate of FGFR1), […] GGEEEEYFELVKKKK (substrate of SRC), 50 μM EAIYAAPFAKKK (substrate of ABL), 250 μM KKKSPGEYVNIEFG (substrate of ALK), 250 μM KKKSPGEYVNIEFG (substrate of Met(h)), 10 mM magnesium acetate and γ-^33 P-ATP solution, stop buffer (3% phosphate buffer), washing buffer (75 mM phosphate solution), methanol, Filtermat A membrane, FLT3, VEGFR2, FLT3, VEGFR2, FLT1, FLT4, RET, c-RAF, B-RAF, c-KIT, PDGFRα, PDGFRβ, FGFR2, FGFR1, EphA2, EphB2, SRC, ABL, ALK, Met and other kinases, and the test compounds.
(§3) Buffers (8 mM MOPS with pH value of 7.0, 0.2 mM EDTA and 10 mM MnCl2), (5-10 mU) kinases to be tested (FLT3, VEGFR2, FLT1, FLT4, RET, c-RAF, B-RAF, c-KIT, PDGFRα, PDGFRβ, FGFR2, FGFR1, EphA2, EphB2, SRC, ABL, ALK and Met), substrates of kinases to be tested (refer to experimental materials), 10 mM magnesium acetate and γ-^33 P-ATP solution, and test compounds at different concentrations were added to a reaction tube orderly. […] Reaction was terminated with 5 μL 3% phosphate buffer finally, and 10 μL reaction solution was titrated to the Filtermat A membrane; solution was washed for 3 times with 75 mM phosphate solution with each time lasting 5 minutes, and then washed once with methanol. Finally, the Filtermat A membrane was dried, and scintillation counting was performed on the membrane, with scintillation count reflecting the phosphorylation degree of the substrates, so that the activity inhibition of kinase could be characterized.

[2] = system: human thyrophyma cell line TT; experiment: In vitro tumor cell proliferation inhibition (MTT): TT; format: cell-based
From the text: (§4) The purpose of the experiment was to test the inhibition activity of the compounds of the invention for in vitro human tumor cell proliferation by the methyl thiazolyl tetrazolium (MTT) colorimetry.
(§5) Main reagents: RPMI-1640, fetal bovine serum, pancreatin, etc. were purchased from Gibco BRL Company (Invitrogen Corporation, USA) and IMDM medium that was purchased from American Type Culture Collection (ATCC). Methyl thiazolyl tetrazolium (MTT) and dimethyl sulfoxide (DMSO) were products from Sigma Company (USA). Pyrazolopyrimidine derivatives were composed by the inventor. During in vitro experiment, 100% DMSO was prepared into 10 mM storage solution, the solution was stored in a refrigerator at −20° C. for future use, and was diluted to the required concentration with complete culture solution before use.
(§6) Cell line and culture: Human leukemia cell line MV4-11, Jurkat, K562, human thyrophyma cell line TT, human gastric carcinoma cell line MKN-45, human malignant melanoma cell lines A375 and A875, human pancreatic carcinoma cell line panc-1, human cervical carcinoma cell line HELA, human colorectal carcinoma cell line HCT116, etc. were purchased from American type culture collection and were preserved by this laboratory. All leukemia cell lines (except MV4-11), gastric carcinoma cell lines and thyrophyma cell lines were cultured in RPMI-1640 complete medium containing 10% fetal bovine serum, 100 U/mL penicillin and 100 μg/mL streptomycin at 37° C. in 5% CO2. The remaining cell lines were cultured in DMEM complete medium containing 10% fetal bovine serum (containing 20% MV4-11 cell), 100 U/mL penicillin and 100 µg/mL streptomycin at 37° C. in 5% CO2.
(§7) Cell suspension with cell concentration of 1-2×10^4/mL was adjusted with the complete cell medium and inoculated in a 96-well plate, with each well filled with 200 μl cell suspension that was cultured overnight. On the next day, supernatant was sucked and abandoned (supernatant was sucked upon centrifugation of suspension cells), and then cells were processed with test compounds at gradient concentrations respectively. Meanwhile, a negative control group free from drug and a solvent control group with equal volume were set, and the DMSO concentration was 0.1%. Each dose group was provided with three wells and cultured at 37° C. in 5% CO2. After 72 hours, 20 μl 5 mg/mL MTT reagent was added to each well, and cultured for another 2 to 4 hours, the supernatant was abandoned; 150 μL DMSO was added to each well again, vibrated and mixed evenly for 15 minutes; the absorbance (A) values (proportional to living cell amount) were determined with a microplate reader (λ=570 nm) and averaged. […] Experiment was repeated for 3 times at least. Experimental data were expressed with means, data statistics were tested by t, and P<0.05 means that difference has a statistical significance. The cell proliferation inhibition effects of all compounds as follows are expressed by IC50 or inhibition rate.

[3] = system: Abl/Abl (T315I)(h); experiment: Kinase inhibition activity test, isotope labeling: Abl; format: biochemical, human; conditions: test compound at a concentration of 10 μM
Method: as §1, §2, §3

[4] = system: human leukemia cell line Jurkat; experiment: In vitro tumor cell proliferation inhibition (MTT): Jurkat; format: cell-based; conditions: 72 hours
From the text: as §4, §5, §6, §7

[5] = system: human colorectal carcinoma cell line HCT116; experiment: In vitro tumor cell proliferation inhibition (MTT): HCT116; format: cell-based
From the text: as §4, §5, §6, §7

[6] = 72 hours, read-out: Proliferation inhibition activity (IC50) HCT 116
[7] = Homo sapiens, HCT-116, 72 hours

Question: What does the source list for `CC(C)(C)c1cc(NC(=O)Nc2ccc(Sc3ncnc4[nH]ncc34)cc2)no1` [4c-3, 1-(4-(1H-pyrazolopyrimidine-4-sulfydryl)phenyl)-3-(5-tert-butylisoxazol-3-yl)urea]?
Answer: Activity inhibition rate VEGFR2 (h) [1]: 100%; IC50 ([2]; 72 hours): 3 to 10 µM; Activity inhibition rate Abl/Abl (T315I)(h) [3]: >30%; IC50 [4]: < 50 µM; IC50 [5, 6]: < 50 µM

Question: `O=C(Nc1ccc(Oc2ncnc3[nH]ncc23)cc1)Nc1ccc(Cl)c(C(F)(F)F)c1` [4a-2] was tested. Which IC50 [1] did it give?
Answer: 0.012 µM

Question: What about the “Activity inhibition rate VEGFR2 (h)” value [1] of the same molecule?
Answer: 100%

Question: What about the IC50 ([2]; 72 hours) of the same molecule?
Answer: 3.42 µM

Question: What about the “Activity inhibition rate Abl/Abl (T315I)(h)” value [3] of the same molecule?
Answer: 86%

Question: What about the IC50 [4] of the same molecule?
Answer: 8.72 µM

Question: And the IC50 [5, 6]?
Answer: < 50 µM

Question: `O=C(Nc1ccc(Oc2ncnc3[nH]ncc23)cc1)Nc1cccc(C(F)(F)F)c1` [4a-6] was tested. Which IC50 [1] did it give?
Answer: 0.011 µM

Question: What about the inhibition at 10 µM [1] of the same molecule?
Answer: 100%

Question: What about the IC50 ([2]; Homo sapiens, 72 h) of the same molecule?
Answer: 0.312 µM

Question: What about the “Activity inhibition rate Abl/Abl (T315I)(h)” value [3] of the same molecule?
Answer: 79%

Question: And the IC50 ([4]; Homo sapiens, Jurkat)?
Answer: 4.28 µM

Question: And the IC50 [5, 7]?
Answer: < 50 µM

Question: `O=C(Nc1ccc(Oc2ncnc3[nH]ncc23)cc1)Nc1ccc(C(F)(F)F)cc1Cl` [4a-13] was tested. Which IC50 [1] did it give?
Answer: 0.037 µM

Question: And the “Activity inhibition rate VEGFR2 (h)” value [1]?
Answer: 100%

Question: And the IC50 ([2]; 72 hours)?
Answer: 3 to 10 µM

Question: And the “Activity inhibition rate Abl/Abl (T315I)(h)” value [3]?
Answer: 27%

Question: What about the IC50 [4] of the same molecule?
Answer: < 50 µM

Question: What about the IC50 [5, 6] of the same molecule?
Answer: < 50 µM

Question: Which results are given for `O=C(Nc1ccc(Oc2ncnc3[nH]ncc23)cc1)Nc1ccc(C(F)(F)F)cc1` [4a-1]?
Answer: IC50 [1]: 0.03 µM; inhibition at 10 µM [1]: 100%; IC50 ([2]; Homo sapiens, 72 h): < 50 µM; Activity inhibition rate Abl/Abl (T315I)(h) [3]: 17%; IC50 ([4]; Homo sapiens, Jurkat): < 50 µM; IC50 [5, 7]: < 50 µM

Question: How did the IC50 [1] turn out when `CC(C)(C)c1cc(NC(=O)Nc2ccc(Oc3ncnc4[nH]ncc34)cc2)on1` [4a-25] was run?
Answer: 0.012 µM

Question: And the “Activity inhibition rate VEGFR2 (h)” value [1]?
Answer: 100%

Question: What about the IC50 ([2]; 72 hours) of the same molecule?
Answer: 1.02 µM

Question: What about the “Activity inhibition rate Abl/Abl (T315I)(h)” value [3] of the same molecule?
Answer: >50%

Question: What about the IC50 [4] of the same molecule?
Answer: < 50 µM

Question: And the IC50 [5, 6]?
Answer: 3 to 10 µM

Question: What does the source list for `O=C(Nc1ccc(Sc2ncnc3[nH]ncc23)cc1)Nc1cccc(C(F)(F)F)c1` [4c-2]?
Answer: Activity inhibition rate VEGFR2 (h) [1]: 100%; IC50 ([2]; 72 hours): 7.89 µM; Activity inhibition rate Abl/Abl (T315I)(h) [3]: >30%; IC50 [4]: < 50 µM

Question: With `O=C(Nc1ccc(Oc2ncnc3[nH]ncc23)cc1)Nc1cc(C(F)(F)F)on1` [4a-28] as the molecule, how does the inhibition at 10 µM [1] read?
Answer: 100%

Question: What about the IC50 ([2]; Homo sapiens, 72 h) of the same molecule?
Answer: 3 to 10 µM

Question: What about the “Activity inhibition rate Abl/Abl (T315I)(h)” value [3] of the same molecule?
Answer: >50%

Question: What about the IC50 ([4]; Homo sapiens, Jurkat) of the same molecule?
Answer: 3 to 10 µM

Question: What about the IC50 [5, 7] of the same molecule?
Answer: < 50 µM

Question: For `O=C(Nc1ccc(C(F)(F)F)cc1)Nc1ccc(Oc2ncnc3[nH]ncc23)c(F)c1` [4a-9, 1-(4-((1H-pyrazolopyrimidine-4-yl)oxy)-3-fluorophenyl)-3-(4-(trifluoromethyl)phenyl)urea], which IC50 [1] is on record?
Answer: 0.019 µM

Question: What about the “Activity inhibition rate VEGFR2 (h)” value [1] of the same molecule?
Answer: 100%

Question: And the IC50 ([2]; 72 hours)?
Answer: 1.63 µM

Question: What about the “Activity inhibition rate Abl/Abl (T315I)(h)” value [3] of the same molecule?
Answer: 15%

Question: What about the IC50 [4] of the same molecule?
Answer: < 50 µM

Question: What about the IC50 [5, 6] of the same molecule?
Answer: 4.56 µM

Question: How did the IC50 [1] turn out when `CC(C)(C)c1cc(NC(=O)Nc2ccc(Oc3ncnc4[nH]ncc34)cc2)n(-c2ccccc2)n1` [4a-24] was run?
Answer: 0.014 µM

Question: And the “Activity inhibition rate VEGFR2 (h)” value [1]?
Answer: 100%

Question: And the IC50 ([2]; 72 hours)?
Answer: 1.55 µM

Question: And the “Activity inhibition rate Abl/Abl (T315I)(h)” value [3]?
Answer: >50%

Question: What about the IC50 [5, 6] of the same molecule?
Answer: 6.75 µM

Question: What does the source list for `CC(C)(C)c1cc(NC(=O)Nc2ccc(Oc3ncnc4[nH]ncc34)cc2)no1` [4a-26]?
Answer: IC50 [1]: 0.012 µM; inhibition at 10 µM [1]: 100%; IC50 ([2]; Homo sapiens, 72 h): 2.12 µM; Activity inhibition rate Abl/Abl (T315I)(h) [3]: >50%; IC50 ([4]; Homo sapiens, Jurkat): 3 to 10 µM; IC50 [5, 7]: 3 to 10 µM
